Experimental data taken from patent US9796711B2, “Substituted pyrazolo[3,4-b]pyridin-6-carboxylic acids and method of use” (AbbVie S.àr.l., priority 2015, dated 2017).

Biological target: T1, ΔF508-CFTR (Homo sapiens, UniProt P13569, DEL508-508)
T1 construct: host or cells: CFBE41o-, doxycycline-inducible
Test: CFTR cell surface levels using HRP-tagged ΔF508-CFTR expressing CFBE cells, in the presence of a co-corrector
Assay type: cell-based
Settings: HRP-tagged ΔF508-CFTR expressing CFBE cells, in the presence of 3 μM co-corrector; for EC50: read-out: EC50
Description: Measuring CFTR Cell Surface Levels Using HRP-Tagged AF508-CFTR Expressing CFBE Cells
The HRP-tagged AF508-CFTR cell assay measures the expression of CFTR-ΔF508 at the plasma membrane. CFTR-ΔF508 has a folding defect leading to absence of protein at the plasma membrane. This assay is used to evaluate the capacity of compounds to increase the expression of CFTR-ΔF508 at the plasma membrane. The CFTR-ΔF508 is tagged with HRP (horse radish peroxidase enzyme) within the ECL4 (Extracellular loop 4) of CFTR (Phuan, P.-W. et al. Synergy-based small-molecule screen using a human lung epithelial cell line yields AF508-CFTR correctors that augment VX-809 maximal efficacy. Mol. Pharmacol. 86, 42-51 (2014)). When HRP-tagged AF508-CFTR is present at the plasma membrane, the HRP enzyme activity can be measured. The amount of CFTR-ΔF508 that can be rescued to the plasma membrane is correlated with the amount of functional enzyme that can be measured.
There are several ways to measure the capacity of compounds to rescue CFTR-ΔF508 to the plasma membrane; either compounds are evaluated on their own and the impact on plasma membrane levels is measured or compounds are evaluated in combination with a co-corrector, i.e. a compound that rescues CFTR-ΔF508 to the plasma membrane but rescue can be enhanced by addition of compounds due to a complementary mode of action.
Activity of Compounds in Combination with Co-Corrector:
For this purpose doxycycline-inducible AF508-CFTR-HRP expressing CFBE4lo-cells (obtained from Gergely Lukacs, McGill University) were maintained in MEM (Minimum Essential Medium, Gibco; 31095) supplemented with 10% fetal bovine serum (Hyclone; SV30160.03) under puromycin (3 μg/mL) and G418 selection (0.2 mg/mL). For compound testing, cells were seeded at 4000 cells/well in white 384-well plates (Greiner; 781080) in 50 μL of medium containing 0.5 μg/mL doxycycline and incubated for 68 hours at 37° C., 5% CO2. On day four, 10 μL of test compounds diluted in PBS (phosphate buffered saline) were added to the plates at a final DMSO concentration of 0.1%. In order to measure compound synergy with a co-corrector, 3 μM co-corrector (3-[(2R,4R)-4-({[1-(2,2-difluoro-1,3-benzodioxol-5-yl)cyclopropyl]carbonyl}amino)-7-methoxy-3,4-dihydro-2H-chromen-2-yl]benzoic acid) was added along with test compounds. All compound plates contained negative controls (DMSO) and positive controls (3 μM co-corrector). Cell plates were incubated at 33° C., 5% CO2 for 20 hours. On day five, the cells were washed five times with phosphate-buffered saline, and HRP activity was assayed by the addition of 50 μL/well of HRP substrate (SuperSignal™ West Pico Chemiluminescent Substrate, Thermo Scientific; 34080). After incubation for 15 minutes in the dark, the chemiluminescence was measured using a plate reader (EnVision®, Perkin Elmer). Raw data were normalized to percentage activity values using the equation: 100×(Sample−Negative control)/(Positive control−Negative Control).

T1 sequence (P13569 with tags, fused parts or gaps DEL508-508): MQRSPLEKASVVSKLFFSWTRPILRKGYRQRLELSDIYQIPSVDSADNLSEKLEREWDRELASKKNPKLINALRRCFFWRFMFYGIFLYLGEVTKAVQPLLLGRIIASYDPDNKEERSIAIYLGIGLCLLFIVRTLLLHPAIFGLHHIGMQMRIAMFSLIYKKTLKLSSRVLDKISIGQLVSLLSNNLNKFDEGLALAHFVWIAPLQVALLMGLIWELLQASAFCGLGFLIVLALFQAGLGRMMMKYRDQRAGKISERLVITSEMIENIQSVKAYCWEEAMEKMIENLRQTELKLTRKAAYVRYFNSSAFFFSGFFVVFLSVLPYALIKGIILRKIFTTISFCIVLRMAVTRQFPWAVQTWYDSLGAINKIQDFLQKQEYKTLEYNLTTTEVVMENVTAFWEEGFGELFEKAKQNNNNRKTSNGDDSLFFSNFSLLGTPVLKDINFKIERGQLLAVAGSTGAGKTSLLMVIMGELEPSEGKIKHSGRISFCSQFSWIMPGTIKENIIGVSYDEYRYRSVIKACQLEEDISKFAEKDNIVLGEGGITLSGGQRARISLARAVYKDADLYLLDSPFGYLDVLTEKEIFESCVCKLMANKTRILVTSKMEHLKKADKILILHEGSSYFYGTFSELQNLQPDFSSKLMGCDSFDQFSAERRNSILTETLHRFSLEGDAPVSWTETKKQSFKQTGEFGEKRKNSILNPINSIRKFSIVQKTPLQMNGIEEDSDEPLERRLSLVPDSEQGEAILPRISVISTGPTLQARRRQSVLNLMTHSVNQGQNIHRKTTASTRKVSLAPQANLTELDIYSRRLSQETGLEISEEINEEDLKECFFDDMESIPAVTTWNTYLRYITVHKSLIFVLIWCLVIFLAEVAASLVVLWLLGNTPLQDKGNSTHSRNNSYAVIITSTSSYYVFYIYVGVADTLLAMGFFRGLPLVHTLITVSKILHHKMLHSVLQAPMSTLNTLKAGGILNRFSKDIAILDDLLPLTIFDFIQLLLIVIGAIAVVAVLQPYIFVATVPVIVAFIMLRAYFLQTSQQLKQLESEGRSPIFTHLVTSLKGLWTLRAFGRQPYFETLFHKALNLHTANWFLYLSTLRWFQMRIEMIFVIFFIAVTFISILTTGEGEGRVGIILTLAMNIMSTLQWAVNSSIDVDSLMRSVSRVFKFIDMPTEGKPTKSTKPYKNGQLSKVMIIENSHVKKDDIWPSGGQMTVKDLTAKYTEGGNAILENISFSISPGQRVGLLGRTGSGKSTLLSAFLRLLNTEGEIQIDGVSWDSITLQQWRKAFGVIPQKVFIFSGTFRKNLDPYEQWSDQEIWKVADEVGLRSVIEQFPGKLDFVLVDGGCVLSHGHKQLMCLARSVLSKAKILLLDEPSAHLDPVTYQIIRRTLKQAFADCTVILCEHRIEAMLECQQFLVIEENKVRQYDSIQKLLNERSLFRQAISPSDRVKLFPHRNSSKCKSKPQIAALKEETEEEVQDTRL

SMILES | % Activation | EC50
Cc1nn(-c2ccccc2)c2nc(C(=O)O)cc(-c3ccc(N4CCOCC4)cc3)c12 [compound 1, 3-methyl-4-[4-(morpholin-4-yl)phenyl]-1-phenyl-1H-pyrazolo[3,4-b]pyridine-6-carboxylic acid] | 354.48% | 1040 nM
Cc1nn(C2CCCCC2)c2nc(C(=O)O)cc(-c3ccc(N4CCOCC4)cc3)c12 [compound 17, 1-cyclohexyl-3-methyl-4-[4-(morpholin-4-yl)phenyl]-1H-pyrazolo[3,4-b]pyridine-6-carboxylic acid] | 272.5% | 1140 nM
CC(C)(C)c1nn(-c2ccccc2)c2nc(C(=O)O)cc(-c3ccc(N4CCOCC4)cc3)c12 [compound 40, 3-tert-butyl-4-[4-(morpholin-4-yl)phenyl]-1-phenyl-1H-pyrazolo[3,4-b]pyridine-6-carboxylic acid] | 340.8% | 393 nM
Cc1nn(-c2ccccc2)c2nc(C(=O)O)cc(-c3ccc(N4CCOCC4)nc3)c12 [compound 50, 3-methyl-4-[6-(morpholin-4-yl)pyridin-3-yl]-1-phenyl-1H-pyrazolo[3,4-b]pyridine-6-carboxylic acid] | 313.2% | 2120 nM
Cc1nn(-c2ccccc2)c2nc(C(=O)O)cc(-c3ccc(N4CCC(C#N)CC4)cc3)c12 [compound 109, 4-[4-(4-cyanopiperidin-1-yl)phenyl]-3-methyl-1-phenyl-1H-pyrazolo[3,4-b]pyridine-6-carboxylic acid] | 398.15% | 752 nM
Cc1nn(-c2ccccc2)c2nc(C(=O)O)cc(-c3ccc(N(C)C4CCOCC4)cc3)c12 [compound 110, 3-methyl-4-{4-[methyl(oxan-4-yl)amino]phenyl}-1-phenyl-1H-pyrazolo[3,4-b]pyridine-6-carboxylic acid] | 397.65% | 536 nM
CC1(c2nn(-c3ccccc3)c3nc(C(=O)O)cc(-c4ccc(N5CCOCC5)cc4)c23)COC1 [compound 113, 3-(3-methyloxetan-3-yl)-4-[4-(morpholin-4-yl)phenyl]-1-phenyl-1H-pyrazolo[3,4-b]pyridine-6-carboxylic acid] | 277% | 1170 nM
COCc1nn(-c2ccccc2)c2nc(C(=O)O)cc(-c3ccc(N4CCOCC4)cc3)c12 [compound 122, 3-(methoxymethyl)-4-[4-(morpholin-4-yl)phenyl]-1-phenyl-1H-pyrazolo[3,4-b]pyridine-6-carboxylic acid] | 311.75% | 1770 nM
Cc1nn(-c2ccccc2)c2nc(C(=O)O)cc(-c3ccc(N4CCC(O)CC4)cc3)c12 [compound 144, 4-[4-(4-hydroxypiperidin-1-yl)phenyl]-3-methyl-1-phenyl-1H-pyrazolo[3,4-b]pyridine-6-carboxylic acid] | 338.4% | 2620 nM
CC(C)c1nn(C2CCCCC2)c2nc(C(=O)O)cc(N3CCC(C#N)CC3)c12 [compound 263, 4-(4-cyanopiperidin-1-yl)-1-cyclohexyl-3-(propan-2-yl)-1H-pyrazolo[3,4-b]pyridine-6-carboxylic acid] | 334.25% | 1130 nM
CC1(c2nn(-c3ccccc3)c3nc(C(=O)O)cc(-c4ccc(N5CCOCC5)cc4)c23)CCC1 [compound 332, 3-(1-methylcyclobutyl)-4-[4-(morpholin-4-yl)phenyl]-1-phenyl-1H-pyrazolo[3,4-b]pyridine-6-carboxylic acid] | 346.12% | 917 nM
O=C(O)c1cc(N2C[C@@H](O)[C@H](O)C2)c2c(C3CCC3)nn(-c3ccccc3)c2n1 [compound 445, 3-cyclobutyl-4-[(3R,4R)-3,4-dihydroxypyrrolidin-1-yl]-1-phenyl-1H-pyrazolo[3,4-b]pyridine-6-carboxylic acid] | 127.85% | > 10000 nM
CN(CC1CCOCC1)c1cc(C(=O)O)nc2c1c(C1CCC1)nn2-c1ccccc1 [compound 554, 3-cyclobutyl-4-{methyl[(oxan-4-yl)methyl]amino}-1-phenyl-1H-pyrazolo[3,4-b]pyridine-6-carboxylic acid] | 365.83% | 1720 nM
CN(C)C(=O)CN1CCN(c2cc(C(=O)O)nc3c2c(C2CCC2)nn3-c2ccccc2)CC1 [compound 559, 3-cyclobutyl-4-{4-[2-(dimethylamino)-2-oxoethyl]piperazin-1-yl}-1-phenyl-1H-pyrazolo[3,4-b]pyridine-6-carboxylic acid] | 352.47% | 2050 nM
CN1CCN(c2cc(C(=O)O)nc3c2c(C2CCC2)nn3-c2ccccc2)CC1 [compound 563, 3-cyclobutyl-4-(4-methylpiperazin-1-yl)-1-phenyl-1H-pyrazolo[3,4-b]pyridine-6-carboxylic acid] | 272.97% | 2230 nM
CC(C)CN1CCC(CN(C)c2cc(C(=O)O)nc3c2c(C2CCC2)nn3-c2ccccc2)CC1 [compound 564, 3-cyclobutyl-4-(methyl{[1-(2-methylpropyl)piperidin-4-yl]methyl}amino)-1-phenyl-1H-pyrazolo[3,4-b]pyridine-6-carboxylic acid] | 369.1% | 2450 nM
CN(CCN1CCOCC1)c1cc(C(=O)O)nc2c1c(C1CCC1)nn2-c1ccccc1 [compound 565, 3-cyclobutyl-4-{methyl[2-(morpholin-4-yl)ethyl]amino}-1-phenyl-1H-pyrazolo[3,4-b]pyridine-6-carboxylic acid] | 319.8% | 1930 nM
CN(C)[C@@H]1CCN(c2cc(C(=O)O)nc3c2c(C2CCC2)nn3-c2ccccc2)C1 [compound 567, 3-cyclobutyl-4-[(3R)-3-(dimethylamino)pyrrolidin-1-yl]-1-phenyl-1H-pyrazolo[3,4-b]pyridine-6-carboxylic acid] | 302.8% | 2110 nM
CN(C)[C@H]1CCN(c2cc(C(=O)O)nc3c2c(C2CCC2)nn3-c2ccccc2)C1 [compound 568, 3-cyclobutyl-4-[(3S)-3-(dimethylamino)pyrrolidin-1-yl]-1-phenyl-1H-pyrazolo[3,4-b]pyridine-6-carboxylic acid] | 279.9% | 2480 nM
CNC(=O)CN1CCN(c2cc(C(=O)O)nc3c2c(C2CCC2)nn3-c2ccccc2)CC1 [compound 569, 3-cyclobutyl-4-{4-[2-(methylamino)-2-oxoethyl]piperazin-1-yl}-1-phenyl-1H-pyrazolo[3,4-b]pyridine-6-carboxylic acid] | 259.37% | 3060 nM
O=C(O)c1cc(N2CCN(C(=O)CN3CCOCC3)CC2)c2c(C3CCC3)nn(-c3ccccc3)c2n1 [compound 570, 3-cyclobutyl-4-{4-[(morpholin-4-yl)acetyl]piperazin-1-yl}-1-phenyl-1H-pyrazolo[3,4-b]pyridine-6-carboxylic acid] | 254% | 3330 nM
O=C(O)c1cc(N2CCCN(CC3CCCO3)CC2)c2c(C3CCC3)nn(-c3ccccc3)c2n1 (stereo not shown) [compound 572, 3-cyclobutyl-4-{4-[(oxolan-2-yl)methyl]-1,4-diazepan-1-yl}-1-phenyl-1H-pyrazolo[3,4-b]pyridine-6-carboxylic acid] | 330.8% | 1190 nM
COc1cc(C(=O)O)nc2c1c(C1CCC1)nn2-c1ccccc1 [compound 584, 3-cyclobutyl-4-methoxy-1-phenyl-1H-pyrazolo[3,4-b]pyridine-6-carboxylic acid] | 202.2% | 2880 nM
